pEC50, pIC50: −log10 of the molar value. Values joined by “and” are separate entries in the source; they are usually repeats but may differ in a detail not shown here. Equal values may be shown once. Active and inactive are the calls of the source.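 The calls were made as follows: active = compounds giving half or more protection of infected cells from virus-caused growth loss, again on retest; inactive = the rest.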
Test system: CEM cells HIV-1 protection, formazan growth assay
Experiment: NCI AIDS Antiviral Assay
Conditions: for pIC50: measured here: growth of uninfected CEM cells
Summary of the method: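 Five concentrations of each compound were applied to infected and uninfected human CEM cells. Protection from HIV-1 was judged from growth measured with a soluble formazan assay.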

SMILES	pEC50	pIC50	outcome
NC(=O)c1ccccc1NC(=O)C(=O)C(C(=O)c1ccc(Cl)c(Cl)c1)C1OC(=O)c2ccccc21 (stereo unspecified)	< 3.47	4.67	
O=[N+]([O-])c1ccc(-n2nnc(C3=NCCN3)c2-c2ccc(Cl)cc2)cc1	< 3.87	< 3.87	
Clc1ccc(C[P+](c2ccccc2)(c2ccccc2)c2ccccc2)cc1Cl	< 3.70	5.52	
O=[N+]([O-])c1ccc(-c2csc(N=Nc3c(O)[nH]c4ccccc34)n2)cc1	3.85	< 3.70	
Cc1ccc(S(=O)(=O)N2CCN(CCN(C)CCN3CCN(S(=O)(=O)c4ccc(C)cc4)CC3)CC2)cc1	< 4.00	4.33	
CSCCC(NP(=S)(c1ccccc1)c1ccccc1)C(=O)O (stereo unspecified)	< 3.70	< 3.70	
O=C(Nc1ccc(/C=C\c2ccc(NC(=O)c3cc(S(=O)(=O)O)c4cccnc4c3O)cc2S(=O)(=O)O)c(S(=O)(=O)O)c1)c1cc(S(=O)(=O)O)c2cccnc2c1O	< 4.00	< 4.00	
CCOC(=O)C(NCc1cccc(C(F)(F)F)c1)(NC(=O)CC)C(F)(F)F (stereo unspecified)	< 3.70	< 4.00	
S=c1[nH]nc2n1NC(c1ccccc1)=NN2	< 3.53	< 3.53	
CNC(=O)[C@H](Cc1ccccc1)NC(=O)N(CCC#N)CCN(C(=O)N[C@@H](Cc1ccccc1)C(=O)OC)c1ccccc1	< 3.70	< 3.70	
COc1ccc(N=NC(=O)NC(CC(C)C)C(=O)NC(Cc2ccccc2)C(=O)O)cc1 (stereo unspecified)	< 3.70	5.51	
Brc1ccc2[nH]c3nc(N/N=C/c4cccnc4)nnc3c2c1	< 3.70	< 3.70	
NC(N)=NC(N)=Nc1ccc(Sc2ccc(N=C(N)N=C(N)N)cc2)cc1	< 3.70		
CC1=NNC(=O)[C@H]2[C@H]1CCC1[C@@H]2CC[C@]2(C)[C@@H](O)CC[C@@H]12 (stereo partly specified)	< 3.70	< 3.70	
COc1ccc(-c2cc(-c3cc(C)cc(Cl)c3O)nc3[nH]c(=S)[nH]c(=S)c23)cc1	< 3.70	5.38	
Cc1ccc(C)c(NC(=O)C(=O)Nn2c(=S)[nH]c3ccccc3c2=O)c1	< 3.30	3.72	
O=C(Nc1cccc(C(F)(F)F)c1)O/N=C(/Cl)CCl	< 3.70	4.47	
NC(=S)N1N=C2c3ccccc3CC[C@@H]2[C@@H]1c1ccccc1	< 4.46	5.22	
COC1(C2c3ccccc3CCN2C(=O)OC(C)(C)C)C(=O)C(c2ccccc2)=C1N(C)C (stereo unspecified)	< 3.70	4.44	
CCN(CCCl)CCNc1c2ccccc2nc2ccc(OC)cc12			inactive
CCC(CCCCC1CC[C@H]2CC(=O)C[C@@H]12)OC (stereo partly specified)	< 3.70	3.97	
C=CC(C)(C)C1(CC(OC)OC)C(=O)N(C)c2ccccc21 (stereo unspecified)	< 3.70	< 3.70	

SMILES	pEC50	pIC50	outcome
Nc1[nH]n(-c2ccccc2)c(=O)c1/C=N/C(=S)NC1CCCCC1	< 4.00	< 4.00	
Cc1ccc(/C=N\NC2c3cc(Cl)ccc3Nc3nc(=O)[nH]c(C)c32)cc1 (stereo unspecified)	< 3.70	3.92	
COC1N(C2CC(F)C(CO)O2)C(=O)NC(=O)C1(C)Br (stereo unspecified)	8.28 and 8.50	5.25 and 5.22	
Cn1cncc1CC1COC(=O)C1C(O)c1ccccc1 (stereo unspecified)	< 3.70	< 3.70	
O=C(CCc1ccccc1)ON1C(=S)C(c2ccccc2)(c2ccccc2)N=C1Sc1ccccc1	< 3.70	4.59	
CC1(C)CCc2cc3c(cc2O1)OCCC3=O			inactive
Clc1cccc(Cl)c1C1SCc2nc3cc4ccccc4cc3n21 (stereo unspecified)	< 3.70	< 3.70	
O=CC[C@@]12CC(=O)OC(C1)[C@@H](I)CC21OCCO1	< 3.70	< 3.70	
O=[N+]([O-])c1cc(Br)cc2cc(Cl)cnc12			inactive
Cc1cc(Cl)ccc1NC(=O)CCCC(=O)C1C/C(=N/O)CC/C1=N\O (stereo unspecified)	< 4.02	< 4.02	
COc1cc2c(cc1OC)C(N(C)C)C(c1ccccc1)=C2Cl (stereo unspecified)	< 4.26	4.48	
O=C1C(Cl)N(c2c(Cl)cccc2Cl)C1c1c[nH]c2ccccc12 (stereo unspecified)	< 3.59	3.94	
Cc1cc(Cl)c(O)c(-c2cc(-c3ccccc3O)c(C#N)c(N)n2)c1	< 3.70	5.67	
CCCCCCCCCCCCCCCCOP(=O)(O)OP(=O)(O)OCC1OC(n2cnc3c(N)ncnc32)C(O)C1O (stereo unspecified)	< 3.70	3.92	
O=C(/C=C/c1ccccc1)NC1C=Nc2ccccc2NC1=O (stereo unspecified)	3.83	< 3.70	
O=c1ccn(C2OC(CN(O)CCC3C(O)C(CO)OC3n3ccc(=O)[nH]c3=O)C(O)C2O)c(=O)[nH]1 (stereo unspecified)	< 3.70	< 3.70	
O=C(O)CCCCSCCCCCCSCCCCC(=O)O	< 3.85	< 3.85	
COC(=O)/C(=N\NC(=O)c1ccccc1O)C(C#N)c1ccc(Cl)cc1 (stereo unspecified)	< 3.32	6.04	
Cc1cc(Cl)ccc1NC(=O)/C(Cc1nc2ccc(C(=O)c3ccccc3)cc2[nH]c1=O)=N/NC(=O)c1ccncc1	< 3.65	4.12	
O=C1c2cc(O)cc(O)c2C(=O)c2c(O)cc(CO)cc21			inactive
c1ccc(SC(CNCCc2ccco2)c2ccc3c(c2)OCO3)cc1 (stereo unspecified)	< 3.70	4.57	
